Measured values published in US20230331707A1, “PROGRAMMED CELL NECROSIS INHIBITOR, PREPARATION METHOD THEREFOR, AND USE THEREOF” (Shanghai Institute of Organic Chemistry, Chinese Academy of …, priority 2020, published 2023).
Read-outs that look alike come from different tables or passages of the source.

Key:
FADD−/− Jurkat cells = test: Inhibition of TNF-induced programmed necrosis of FADD deficient Jurkat cells (Cell Titer-Glo viability); type: cell-based; conditions: for EC50: Homo sapiens, Jurkat, FADD−/− Jurkat cells; for activity of inhibition of programmed necrosis compared with GSK2982772: human FADD-deficient Jurkat cells, TNFα alone or in combination with SM164
In short: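 FADD-deficient human Jurkat T leukemia cells in log phase were adjusted to 2.5×10^5/mL and plated at 40 μl per well in 384-well plates. Compounds were added, with SM164 (50 nM) where used, for a 1 h pretreatment at 37° C. TNFα (50 ng/mL) was then added, and cells were incubated 14 h at 37° C, 5% CO2. Viability was read as ATP luminescence with Cell Titer-Glo after 30 min at room temperature, with unstimulated DMSO wells set as 100%. EC50 values were calculated in Prism Graphpad.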

[1] = test system: MEFs cells expressing RIPK1 S161E mutant; test: TSZ-induced programmed necrosis in MEFs cells expressing RIPK1 S161E mutant; type: cell-based, mouse; conditions: 600 nM
Source text: (§1) The adopted biological test protocol was: the effect of compounds on programmed necrosis in MEFs cells (mouse embryonic fibroblasts) with RIPK1 S161E mutation.
(§2) In order to verify the inhibitory effect of the compound of the present invention on the highly activated RIPK1 kinase at the cellular level, MEFs cells stably expressing RIPK1 S161E (simulating the activation state of RIPK1 after phosphorylation) were selected, TNFα-SM164-zVAD (Caspase inhibitor for inhibiting apoptosis) (TSZ) was used in combination to induce programmed cell necrosis, and cell viability was calculated by detecting chemiluminescence values, thereby obtaining the biological activity of the compound in inhibiting programmed necrosis.
(§3) Methods: MEFs cells replenished by RIPK1: WT-RIPK1, S161A-RIPK1 and S161E-RIPK1 were replenished in RIPK1 stable knockout cells respectively. After stable expression and being cultured to logarithmic growth phase, the cells were collected, and centrifuged at 1000 rpm for 5 min. The supernatant was discarded. Cell concentration was adjusted to 5×10^4/mL, and cells were inoculated into 384-well plates with 40 μL per well. Cell culture medium diluted SM164 (100 nM), zVAD (50 μM) and compound, each […], were added to the corresponding wells. After pretreatment at 37° C. for 1 h, 5 μL of cell culture medium diluted TNF (50 ng/mL) was added to each well in the stimulated group and 5 μL of culture medium was added to the control group. […] The unstimulated DMSO control wells (Ctrl) were taken as 100% cell viability. EC50 values of the compounds were calculated using Prism Graphpad statistical software.

L929 cells = test: Inhibition of TNF-induced programmed necrosis of L929 cells (Cell Titer-Glo viability); type: cell-based, mouse; conditions: for EC50: Mus musculus, L929, L929 cells
In short: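 Mouse L929 fibroblasts were diluted to 6.25×10^4/ml, plated at 40 μl per well in 384-well plates, and incubated 12 hours at 37° C., 5% CO2. Compounds were added, with SM164 (500 nM) for the combination arm, and pretreated 1 h before TNFα (500 ng/mL). After 14 h, viability was read by Cell Titer-Glo luminescence against unstimulated DMSO controls, and EC50 values were fitted in Prism Graphpad.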

[2] = test system: MEFs cells expressing RIPK1 WT; test: TSZ-induced programmed necrosis in MEFs cells expressing RIPK1 WT; type: cell-based, mouse; conditions: 600 nM
Source text: as §1, §2, §3

[3] = test system: RIPK1^K612R/K612R mutant mice; test: Digestive system inflammation in RIPK1 K612R/K612R mutant mice; type: in vivo; conditions: gavage 25 mg/kg, control Nec-1s 50 mg/kg
Source text: The adopted biological test scheme was: RIPK1^K612R/K612R mutant mice were used as model mice to test the effect of representative compound QY-10-40 or QY-13-19 on spontaneous intestinal inflammation.
K612R mutation leads to decreased in intracellular RIPK1 level but abnormal activation, making it sensitive to programmed necrosis and caspase-1 activation, and responding to TLRs signaling. RIPK1^K612R/K612R mice will appear responses such as age-dependent reduced RIPK1 expression and abnormal activation, spontaneous intestinal inflammation and splenomegaly.
Methods: The compounds to be tested were dissolved in 0.5% carboxymethyl cellulose according to the required concentration one day in advance, and sonicated overnight. Mice were gavaged in a volume of 0.1 ml/10 g body weight. Body weight was measured three times a week, and samples were collected at the end of the experiment. The effect of the compounds was calculated using Prism Graphpad statistical software.

[4] = 14 h, stimulated with TNFα + SM164, read-out: EC50 (μM) FADD−/− Jurkat cells (human) TNFα + SM164
[5] = stimulated with TNFα alone, read-out: EC50 (μM) FADD−/− Jurkat cells (human) TNFα
[6] = stimulated with TNFα + SM164, read-out: EC50 (μM) L929 cells (mouse) TNFα + SM164
[7] = stimulated with TNFα alone, read-out: EC50 (μM) L929 cells (mouse) TNFα

SMILES | EC50 (FADD−/− Jurkat cells; [4]) [nM] | EC50 (FADD−/− Jurkat cells; [5]) [nM] | activity of inhibition of programmed necrosis compared with GSK2982772 (FADD−/− Jurkat cells) | inhibition of programmed necrosis [1] | EC50 (L929 cells; [6]) [nM] | EC50 (L929 cells; [7]) [nM] | inhibition of programmed necrosis (in words) (L929 cells; mouse-derived L929 cells) | inhibition of programmed necrosis [2] | effect on body weight and spleen coefficient [3]
COc1cc2ncn(-c3ccc(CNC(=O)c4cnn(C)c4Cc4ccccc4)cc3)c2cc1OC [QY-11-76] | 0.05 | 0.0243 | stronger activity | can significantly inhibit occurrence of programmed necrosis | 0.432 | 0.0598 | excellently inhibit the occurrence of programmed necrosis | can effectively inhibit the occurrence of programmed necrosis | –
Cn1ncc(C(=O)NCc2ccc(-n3cnc4c(N)nccc43)cc2)c1Cc1ccccc1 [QY-11-77] | 0.838 | 0.012 | – | can significantly inhibit occurrence of programmed necrosis | 0.63 | 1.17 | – | can effectively inhibit the occurrence of programmed necrosis | –
Cn1nnc(C(=O)NCc2ccc(-n3cnc4c(N)ncnc43)cc2)c1Cc1ccccc1 [QY-13-19, N-(4-(6-amino-9H-purin-9-yl)benzyl)-5-benzyl-1-methyl-1H-1,2,3-triazole-4-carboxamide] | 0.516 | 0.0557 | stronger activity | – | 3.09 | 1.46 | – | – | can inhibit the effect of the digestive system inflammation
